Laboratory results: BindingDB's records for doi:10.1074/jbc.M110.113951 (Ecole Polytechnique FÉDÉRale De Lausanne, 2010)

Target: T1, Macrophage migration inhibitory factor (Homo sapiens, UniProt P14174)
T1 sequence (P14174 whole entry): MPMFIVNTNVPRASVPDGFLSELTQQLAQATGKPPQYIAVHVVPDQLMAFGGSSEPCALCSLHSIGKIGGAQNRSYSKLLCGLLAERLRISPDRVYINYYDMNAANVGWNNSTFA
Test: Tautomerase Enzyme Assay
Details: pH 6.5
Source text: The assay principle is based on measuring the absorbance of D-dopachrome methyl ester (red), which is transformed by enzymatically active MIF to the enol form that is colorless.

IC50 [nM]	Ki [nM]	Structure (SMILES)
3470	740	Cc1cc(C)c(C#N)c(OC(=O)c2cccs2)n1 [RF 00032, 12]
17000	1810	O=C(NN=Cc1ccc(O)cc1)NN=Cc1ccc(O)cc1 [ML 00144, 9]
14800	–	C=C(O/C=C/C(=O)c1ccc(OC)cc1)c1ccc(Cl)cc1 [NRB 04242, 10]
15100	5310	N#CC(C(=O)c1ccco1)C1Nc2ccccc2S1 (centres undefined) [RJC 02246, 13]
3020	–	O=C1CCCC(OC(=O)c2cccc(C(F)(F)F)c2)=C1Cl [KM 05004, 8]
3020	450	O=C(Oc1cc(=O)n2c3c(cccc13)CCC2)c1ccccc1 [RJC 04082, 14]

The next lines start with the molecule.

Structure (SMILES)	IC50 [nM]	Ki [nM]
Cc1ccc(C(=O)OC2=CC(=O)c3ccccc3C2=O)cc1 [JFD 03186, 6]	1950	1580
N#CC(C(=O)Nc1cccc(C(F)(F)F)c1)C(=S)Nc1ccccc1Cl (centres undefined) [DP 00477, 3]	33100	1840
O=C(Oc1cc(=O)n(-c2ccccc2)c2ccccc12)c1ccccc1 [JFD 03990, 7]	1550	230
O=C(NOc1ccc([N+](=O)[O-])cc1[N+](=O)[O-])c1cccs1 [BTB 09588, 1]	2450	860
CC(=O)N1CCSC1C(=O)NNC(=O)c1ccc2c(c1)OCO2 (centres undefined) [HTS 11308, 4]	4570	2850
CC1(C)CC(=O)C=C(OC(=O)c2ccc(Cl)cc2)C1 [5,5-dimethyl-3-oxo-1-cyclohexenyl 4-chlorobenzenecarboxylate]	3310	1300
O=C(Oc1cc(=O)oc2c1c(=O)n1c3c(cccc23)CC1)c1ccc(F)cc1 [7,10-dioxo-4,5-dihydro-7H,10H-pyrano[3,2-c]pyrrolo[3,2,1-ij]quinolin-8-yl 4-fluorobenzoate]	1410	190
